Results reported in US12448394B2, “Heterocyclic pyrazole derivatives as type III receptor tyrosine kinase inhibitors” (DEVELOPMENT CENTER FOR BIOTECHNOLOGY, priority 2019, dated 2025).

Legend:
[1] = test system: MV4-11 human acute myeloid leukemia cell with FLT3-ITD mutation; assay: MV4-11 cell proliferation assay (CellTiter 96); format: cell-based; settings: Homo sapiens, MV4-11, 72 h, MV4-11 cells, 72 hours treatment, CellTiter96; read-out: anti-proliferation activity MV4-11 (FLT3-ITD), IC50 ranking
Description: (§1) Inhibitions of cell growths by compounds were measured using CellTiter™-96 assay. The cytotoxicities of compounds of the invention were evaluated in cell line panels with different signaling pathway dependencies, including MV4-11 human acute myeloid leukemia cell with FLT3-ITD mutation, Molm-14 human acute myeloid leukemia cell with FLT3-ITD mutation, THP-1 human acute monocytic leukemia cell with NRAS G12D mutation, A375 melanoma cell with BRAF V600E mutation, and HCC827 NSCLC cell with EGFR exon 19 deletion mutation.
The compounds disclosed herein were tested in MV4-11 cell proliferation assay to determine their cellular potencies against FLT3 signal pathway dependent cell growths. MV4-11 cells are human acute myeloid leukemia (AML) cells harboring ligand-independent FLT3-ITD activating mutation, which renders the abnormal proliferation of AML cells FLT3 signaling pathway dependent. Inhibition of FLT3 kinase activity will result in reduced growths and/or cell deaths. MV4-11 cells (catalog #CRL-9591) were obtained from the American Type Culture Collection (ATCC, Manassas, VA). Briefly, cells were grown in IMDM medium supplemented with 10% heat inactivated fetal bovine serum and incubated at 37° C. in 5% CO2 atmosphere. Cells were allowed to expand until reaching saturation, at which point they were sub-cultured or harvested for assay use.
(§2) MV4-11, Molm-14, THP-1, A375, and HCC827 cells were seeded into 96-well plates at 6500, 25000, 5000, 2000 and 8000 cells/well, respectively, and incubated at 37° C., 5% CO2 overnight. Then, these seeded cells were treated with increasing concentrations of the test compounds and incubated for another 72 hours. At the end of the incubation, CellTiter96® AQueous One Solution Reagent (Promega, […]) was added and incubated for the additional 2˜4 hours. Cell viability was determined by measuring absorbance at 490 nm using EMax® microplate reader (Molecular Devices, San Jose, CA, USA).

[2] = test system: A375 melanoma cell with BRAF V600E mutation; assay: A375 cell proliferation assay (counter screen); format: cell-based, human; settings: Homo sapiens, A-375, A375 cells, 72 hours treatment, CellTiter96, read-out: anti-proliferation activity A375 BRAF V600E, IC50 ranking
Description: as §1
(§3) A375 cells are melanoma cells encoding BRFA V600E mutation, which renders the cell growth dependent on BRAF signaling instead of class III RTKs signaling. A375 cells (catalog #CRL-1619) were obtained from the ATCC. Briefly, cells were cultured in DMEM containing 10% FBS and incubated at 37° C. in 5% CO2 atmosphere. Cells were allowed to expand until reaching saturation, at which point they were sub-cultured or harvested for assay use.
as §2

[3] = test system: THP-1 human acute monocytic leukemia cell with NRAS G12D mutation; assay: THP-1 cell proliferation assay (counter screen); format: cell-based; settings: Homo sapiens, THP-1 cells, 72 hours treatment, CellTiter96, read-out: anti-proliferation activity THP-1 NRAS N12D, IC50 ranking
Description: as §1
THP-1 cells are human acute monocytic leukemia cells with NRAS G12D mutation, which renders the cell growth independent of class III RTKs signaling. THP-1 cells (catalog #TIB-202) were obtained from the ATCC. Briefly, cells were grown in RPMI 1640 medium supplemented with 10% heat inactivated fetal bovine serum and 0.05 mM 2-mercaptoethanol and incubated at 37° C. in 5% CO2 atmosphere. Cells were allowed to expand until reaching saturation, at which point they were sub-cultured or harvested for assay use.
as §2

[4] = test system: Molm-14 human acute myeloid leukemia cell with FLT3-ITD mutation; assay: Molm-14 cell proliferation assay (CellTiter 96); format: cell-based; settings: Homo sapiens; Molm-14 cells, 72 hours treatment, CellTiter96; read-out: anti-proliferation activity Molm-14 (FLT3-ITD), IC50 ranking
Description: as §1
The compounds disclosed herein were tested in Molm-14 cell proliferation assay to determine their cellular potencies against FLT3 signal pathway dependent cell growths. Molm-14 cells are human acute myeloid leukemia (AML) cells harboring ligand-independent FLT3-ITD activating mutation, which renders the abnormal proliferation of the AML cells FLT3 signaling pathway dependent. Inhibition of FLT3 kinase activity will result in reduced growths and/or cell deaths. […] Briefly, cells were grown in RPMI 1640 medium supplemented with 10% heat inactivated fetal bovine serum and incubated at 37° C. in 5% CO2 atmosphere. Cells were allowed to expand until reaching saturation, at which point they were sub-cultured or harvested for assay use.
as §2

[5] = test system: HCC827 NSCLC cell with EGFR exon 19 deletion mutation; assay: HCC827 cell proliferation assay (counter screen); format: cell-based, human; settings: Homo sapiens, HCC827 cells, 72 hours treatment, CellTiter96, read-out: anti-proliferation activity HCC827 EGFR Exon19 del, IC50 ranking
Description: as §1
as §3, with “HCC827” for “A375”, “non-small cell lung carcinoma (NSCLC)” for “melanoma”, “EGFR exon 19 deletion” for “BRFA V600E”, “EGFR” for “BRAF”, “#CRL-2868)” for “#CRL-1619)”, “RPMI1640 medium supplemented with” for “DMEM containing”
as §2

[6] = test system: phosphorylation of FLT3 and its down-stream effector STAT5; assay: Western blotting of p-FLT3 and p-STAT5 in MV4-11 cells; format: cell-based; settings: Homo sapiens; at 30 nM treatment, 3 hours, FLT3-ITD positive MV4-11 leukemia cells; read-out: inhibition activity against phosphorylation of FLT3 and its down-stream effector STAT5
Description: The potent compounds of formula (I) in EXAMPLE 2 were evaluated, by western blotting assay, for their cellular potencies against phosphorylation of FLT3 and its down-stream effector STAT5 in MV4-11 leukemia cell line with constitutive activation of FLT3 signaling. For western blotting experiments, MV4-11 cells were cultured in IMDM medium containing 0.1% FBS overnight. On the assay day, three million cells were treated with or without compounds for 3 hours in 15 mL tubes. Then, the whole cell lysates were harvested, following extraction by adding 2×SDS Sample Buffer and boiling on hot plate at 105° C. for 15 minutes. The resulting cell lysates were separated by SDS-PAGE electrophoresis and transferred to PVDF membrane. Protein expression was detected using immunoblot with corresponding primary antibody and secondary antibody following the standard procedures. Antibody against p-FLT3 (Tyr-591), anti-rabbit IgG HRP-linked secondary antibody, and anti-mouse IgG HRP-linked secondary antibody were purchased from Cell Signaling Technology. Antibody against p-STAT5 (Tyr-694) was purchased from BD biosciences. Antibody against actin was purchased from R&D system. […] Band intensities of western blot were also quantified by ChemiDoc™ MP Imaging System. Relative intensities of bandscorresponding to drug treatments at a single concentration (30 nM) were compared to the DMSO control group. The percentage (%) inhibition at each drug concentration was calculated using the formula: Percentage(%)inhibition=(1−Relative intensity)×100.

SMILES | IC50 [1] | IC50 [4] | IC50 [2] | IC50 [3] | IC50 [5] | inhibition at 0.03 µM [6]
Cn1ncc2ccc(-c3n[nH]c4c3Cc3sc(-c5ccc(CN6CC(F)(F)C6)cc5)cc3-4)cc21 [Compound 104, 6-(4-((3,3-difluoroazeti-din-1-yl)methyl)phenyl)-3-(1-methyl-1H-indazol-6-yl)-1,4-dihydrothieno [2′,3′:4,5]cyclopenta [1,2-c]pyrazole] | 30 to 100 nM | 100 to 300 nM | 1000 to 10000 nM | 1000 to 10000 nM | > 10000 nM | –
CC(C)Cn1ncc2ccc(-c3n[nH]c4c3Cc3sc(-c5ccc(CN6CCOCC6)cc5)cc3-4)cc21 [Compound 35, 4-(4-(3-(1-isobutyl-1H-indazol-6-yl)-1,4-dihydro-thieno[2′,3′:4,5]cyclopenta [1,2-c]pyrazol-6-yl)benzyl)morpholine] | 100 to 300 nM | 100 to 300 nM | > 10000 nM | 1000 to 10000 nM | > 10000 nM | –
CN(c1ccc(-c2cc3c(s2)Cc2c(-c4ccc5cnn(C)c5c4)n[nH]c2-3)cc1)C1CCOCC1 [Compound 73, N-methyl-N-(4-(3-(1-methyl-1H-indazol-6-yl)-1,4-dihydrothieno [2′,3′:4,5]cyclopenta [1,2-c]pyrazol-6-yl)phenyl)tetrahydro-2H-pyran-4-amine] | 100 to 300 nM | 300 to 1000 nM | > 10000 nM | > 10000 nM | > 10000 nM | –
Cc1ccc(-c2cc3c(s2)Cc2c(-c4ccc5cnn(C)c5c4)n[nH]c2-3)cn1 [Compound 11, 3-(1-methyl-1H-indazol-6-yl)-6-(6-methylpyridin-3-yl)-1,4-dihydrothieno [2′,3′:4,5]cyclopenta[1,2-c] pyrazole] | < 30 nM | 30 to 100 nM | > 10000 nM | > 10000 nM | > 10000 nM | –
Cn1ncc2ccc(-c3n[nH]c4c3Cc3sc(-c5ccc(CN6CCC(F)(F)C6)cc5)cc3-4)cc21 [Compound 67, 6-(4-((3,3-difluoro-pyrrolidin-1-yl)methyl)phenyl)-3-(1-methyl-1H-indazol-6-yl)-1,4-dihydro-thieno[2′,3′:4,5]cyclopenta [1,2-c]pyrazole] | 100 to 300 nM | 100 to 300 nM | > 10000 nM | > 10000 nM | > 10000 nM | –
Cn1ncc2ccc(-c3n[nH]c4c3Cc3sc(-c5ccc(CN6CCOCC6)cn5)cc3-4)cc21 [Compound 95, 4-((6-(3-(1-methyl-1H-indazol-6-yl)-1,4-dihydro-thieno[2′,3′:4,5]cyclopenta [1,2-c]pyrazol-6-yl)pyridin-3-yl)methyl) morpholine] | – | – | – | – | – | > 50%
Cn1ncc2ccc(-c3n[nH]c4c3Cc3sc(-c5ccc(CC6CCOCC6)cc5)cc3-4)cc21 [Compound 77, 3-(1-methyl-1H-indazol-6-yl)-6-(4-((tetrahydro-2H-pyran-4-yl)methyl)phenyl)-1,4-dihydrothieno [2′,3′:4,5]cyclopenta [1,2-c]pyrazole] | 100 to 300 nM | 100 to 300 nM | 1000 to 10000 nM | 1000 to 10000 nM | > 10000 nM | –

Second part, led by results:

IC50 [1] | IC50 [4] | SMILES | IC50 [2] | IC50 [3] | IC50 [5] | inhibition at 0.03 µM [6]
30 to 100 nM | 100 to 300 nM | Cn1ncc2ccc(-c3n[nH]c4c3Cc3sc(-c5cccc(OCCN6CCOCC6)c5)cc3-4)cc21 [Compound 70, 4-(2-(3-(3-(1-methyl-1H-indazol-6-yl)-1,4-dihydro-thieno[2′,3′:4,5]cyclopenta [1,2-c]pyrazol-6-yl)phenoxy)ethyl)morpholine] | > 10000 nM | > 10000 nM | > 10000 nM | –
30 to 100 nM | 100 to 300 nM | CN(C)c1ccc(-c2cc3c(s2)Cc2c(-c4ccc5cnn(C)c5c4)n[nH]c2-3)cn1 [Compound 5, N,N-dimethyl-5-(3-(1-methyl-1H-indazol-6-yl)-1,4-dihydrothieno [2′,3′:4,5]cyclopenta[1,2-c]pyrazol-6-yl)pyridin-2-amine] | > 10000 nM | > 10000 nM | > 10000 nM | –
100 to 300 nM | 100 to 300 nM | Cc1cc(-c2cc3c(s2)Cc2c(-c4ccc5cnn(C)c5c4)n[nH]c2-3)ccc1CN1CCOCC1 [Compound 26, 4-(2-methyl-4-(3-(1-methyl-1H-indazol-6-yl)-1,4-dihydrothieno[2′,3′:4,5]cyclopenta[1,2-c]pyrazol-6-yl)benzyl)morpholine] | > 10000 nM | > 10000 nM | > 10000 nM | –
300 to 1000 nM | 300 to 1000 nM | Cn1ncc2ccc(-c3n[nH]c4c3Cc3sc(-c5ccc(C=C6CCOCC6)cc5)cc3-4)cc21 [Compound 76, 3-(1-methyl-1H-indazol-6-yl)-6-(4-((tetrahydro-4H-pyran-4-ylidene)methyl)phenyl)-1,4-dihydrothieno[2′,3′:4,5] cyclopenta[1,2-c]pyrazole] | > 10000 nM | > 10000 nM | > 10000 nM | –
300 to 1000 nM | 1000 to 10000 nM | Cn1ncc2ccc(-c3n[nH]c4c3Cc3sc(-c5ccc(CN6CCOCC6)c(C(F)(F)F)c5)cc3-4)cc21 [Compound 27, 4-(4-(3-(1-methyl-1H-indazol-6-yl)-1,4-dihydrothieno[2′,3′:4,5]cyclopenta[1,2-c]pyrazol-6-yl)-2-(trifluoromethyl)benzyl)morpholine] | > 10000 nM | > 10000 nM | > 10000 nM | –
< 30 nM | 30 to 100 nM | CN1CCN(Cc2cccc(-c3cc4c(s3)Cc3c(-c5ccc6cnn(C)c6c5)n[nH]c3-4)c2)CC1 [Compound 14, 3-(1-methyl-1H-indazol-6-yl)-6-(3-((4-methylpiperazin-1-yl)methyl)phenyl)-1,4-dihydrothieno [2′,3′:4,5]cyclopenta[1,2-c] pyrazole] | 1000 to 10000 nM | > 10000 nM | > 10000 nM | –
